Our source for the EC50 and CC50 values is patent publication US20200339511A1, “Substituted indoline derivatives as dengue viral replication inhibitors” (priority 2016, published 2020).

One series deals with DENV-2 16681 strain. Description: DENV-2 antiviral assay (eGFP-labeled virus in Vero cells). Format: cell-based, Dengue virus. The following applies: DENV-2 16681 eGFP, MOI 0.5, 3 days. As to the method: The antiviral activity of all the compounds of the invention was tested the against DENV-2 16681 strain which was labeled with enhanced green fluorescent protein (eGPF). The culture medium consists of minimal essential medium supplemented with 2% of heat-inactivated fetal calf serum, 0.04% gentamycin (50 mg/mL) and 2 mM of L-glutamine. Vero cells, obtained from ECACC, were suspended in culture medium and 25 μL was added to 384-well plates (2500 cells/well), which already contain the antiviral compounds. Typically, these plates contain a 5-fold serial dilution of 9 dilution steps of the test compound at 200 times the final concentration in 100% DMSO (200 nL). […] Finally, each plate contains wells which are assigned as virus controls (containing cells and virus in the absence of compound), cell controls (containing cells in the absence of virus and compound) and medium controls (containing medium in the absence of cells, virus and compounds). To the wells assigned as medium control, 25 μL of culture medium was added instead of Vero cells. Once the cells were added to the plates, the plates were incubated for 30 minutes at room temperature to allow the cells to distribute evenly within the wells. Next, the plates were incubated in a fully humidified incubator (37° C., 5% CO2) until the next day. Then, DENV-2 strain 16681, labeled with eGFP, was added at a multiplicity of infection (MOI) of 0.5. Therefore, 15 μL of virus suspension was added to all the wells containing test compound and to the wells assigned as virus control. In parallel, 15 μL of culture medium was added to the medium and cell controls. Next, the plates were incubated for 3 days in a fully humidified incubator (37° C., 5% CO2). At the day of the read out, the eGFP fluorescence was measured using an automated fluorescence microscope at 488 nm (blue laser). Using an in-house LIMS system, inhibition dose response curves for each compound were calculated and the half maximal effective concentration (EC50) was determined. Therefore, the percent inhibition (I) for every test concentration is calculated using the following formula: I=100*(ST-SCC)/(SVC-SCC), ST, SCC and SVC are the amount of eGFP signal in the test compound, cell control and virus control wells, respectively. The EC50 represents the concentration of a compound at which the virus replication is inhibited with 50%, as measured by a 50% reduction of the eGFP fluorescent intensity compared to the virus control. The EC50 is calculated using linear interpolation (Table 1).

A short description of the next series: in vitro. The following applies: African green monkey.
In the next series the test system is Vero cells. The following applies: African green monkey.
[1] abbreviates: Dengue virus, DENV2, Vero, 72 h.

Each structure is given as a SMILES string.

`COc1cc(NC(C(=O)N2CCc3ccc(C(F)(F)F)cc32)c2ccc(Cl)cc2F)cc(OCCO)c1` (racemic) [Compound 2, 2-(4-chloro-2-fluorophenyl)-2-((3-(2-hydroxyethoxy)-5-methoxyphenyl)amino)-1-(6-(trifluoromethyl)indolin-1-yl)ethanone]: a half-maximal response in the series with DENV-2 16681 strain (setting [1]) (EC50) required 0.0089 µM. This compound also gave a CC50 in “in vitro” of 12 µM.
The corresponding values for `COc1cc(NC(C(=O)N2CCc3ccc(OC(F)(F)F)cc32)c2ccc(Cl)cc2F)cc(OCCO)c1` (racemic) [Compound 6, 2-(4-chloro-2-fluorophenyl)-2-((3-(2-hydroxyethoxy)-5-methoxyphenyl)amino)-1-(6-(trifluoromethoxy)indolin-1-yl)ethanone] are 0.0062 µM and 14 µM.
`COc1cc(NC(C(=O)N2CCc3cc(OC)c(C(F)(F)F)cc32)c2ccc(Cl)cc2)cc(OCCO)c1` (racemic) [Compound 7, 2-(4-chlorophenyl)-2-((3-(2-hydroxyethoxy)-5-methoxyphenyl)amino)-1-(5-methoxy-6-(trifluoromethyl)indolin-1-yl)ethanone] returned an EC50 in the series on DENV-2 16681 strain (setting [1]) of 0.0023 µM. The compound also yielded a CC50 in “in vitro” of 11 µM.
Taken in the same sequence, the figures for `COc1cc(NC(C(=O)N2CCc3cc(OC)c(C(F)(F)F)cc32)c2ccc(Cl)cc2F)cc(OCCO)c1` (racemic) [Compound 8, 2-(4-chloro-2-fluorophenyl)-2-((3-(2-hydroxyethoxy)-5-methoxyphenyl)amino)-1-(5-methoxy-6-(trifluoromethyl)indolin-1-yl)ethanone] were 0.0044 µM and > 25 µM.
For `COc1cc(NC(C(=O)N2CCc3ccc(C(F)(F)F)cc32)c2ccc(Cl)cc2OC)cc(OCCO)c1` (single isomer, unassigned) [Compound 1A, 2-(4-chloro-2-methoxyphenyl)-2-((3-(2-hydroxyethoxy)-5-methoxyphenyl)amino)-1-(6-(trifluoromethyl)indolin-1-yl)ethanone], the EC50 in the series with DENV-2 16681 strain worked out at 0.22 µM. For the same compound, the CC50 in the series “in vitro” is 13 µM.
Compound `COc1cc(NC(C(=O)N2CCc3ccc(C(F)(F)F)cc32)c2ccc(Cl)cc2F)cc(OCCO)c1` (single isomer, unassigned) [Compound 2A, 2-(4-chloro-2-fluorophenyl)-2-((3-(2-hydroxyethoxy)-5-methoxyphenyl)amino)-1-(6-(trifluoromethyl)indolin-1-yl)ethanone] yielded an EC50 with DENV-2 16681 strain of 0.32 µM. In addition, the CC50 in the series “in vitro” stood at 18 µM.
Consider `COc1cc(NC(C(=O)N2CCc3ccc(OC(F)(F)F)cc32)c2ccc(Cl)cc2)cc(OCCO)c1` (single isomer, unassigned) [Compound 3B, 2-(4-chlorophenyl)-2-((3-(2-hydroxyethoxy)-5-methoxyphenyl)amino)-1-(6-(trifluoromethoxy)indolin-1-yl)ethanone], for which the EC50 with DENV-2 16681 strain came to 0.59 µM. For the same compound, the CC50 in the series with Vero cells turned out to be 12 µM.
In turn, `COc1cc(NC(C(=O)N2CCc3ccc(OC(F)(F)F)cc32)c2ccc(Cl)cc2OC)cc(OCCO)c1` (single isomer, unassigned) [Compound 5B, 2-(4-chloro-2-methoxyphenyl)-2-((3-(2-hydroxyethoxy)-5-methoxyphenyl)amino)-1-(6-(trifluoromethoxy)indolin-1-yl)ethanone] had an EC50 in the series on DENV-2 16681 strain of 0.76 µM. This compound displayed a CC50 in the series on Vero cells of 14 µM.
In the series on DENV-2 16681 strain, `COc1cc(NC(C(=O)N2CCc3ccc(OC(F)(F)F)cc32)c2ccc(Cl)cc2F)cc(OCCO)c1` (single isomer, unassigned) [Compound 6A, 2-(4-chloro-2-fluorophenyl)-2-((3-(2-hydroxyethoxy)-5-methoxyphenyl)amino)-1-(6-(trifluoromethoxy)indolin-1-yl)ethanone] had an EC50 of 0.28 µM. This compound also returned a CC50 in the series “in vitro” of 17 µM.
The corresponding values for `COc1cc(NC(C(=O)N2CCc3cc(OC)c(C(F)(F)F)cc32)c2ccc(Cl)cc2)cc(OCCO)c1` (single isomer, unassigned) [Compound 7A, 2-(4-chlorophenyl)-2-((3-(2-hydroxyethoxy)-5-methoxyphenyl)amino)-1-(5-methoxy-6-(trifluoromethyl)indolin-1-yl)ethanone] are 0.79 µM and 21 µM.
With `COc1cc(NC(C(=O)N2CCc3cc(OC)c(C(F)(F)F)cc32)c2ccc(Cl)cc2F)cc(OCCO)c1` (single isomer, unassigned) [Compound 8A, 2-(4-chloro-2-fluorophenyl)-2-((3-(2-hydroxyethoxy)-5-methoxyphenyl)amino)-1-(5-methoxy-6-(trifluoromethyl)indolin-1-yl)ethanone], the EC50 in the series with DENV-2 16681 strain was 0.46 µM. In the series with Vero cells, the CC50 is > 25 µM.
Compound `COc1cc(NC(C(=O)N2CCc3c(C)cc(OC(F)(F)F)cc32)c2ccc(Cl)cc2)cc(OCCO)c1` (single isomer, unassigned) [Compound 9A, 2-(4-chlorophenyl)-2-((3-(2-hydroxyethoxy)-5-methoxy-phenyl)amino)-1-(4-methyl-6-(trifluoromethoxy)indolin-1-yl)ethanone] yielded an EC50 in the series with DENV-2 16681 strain of 1 µM. For the same compound, in the series “in vitro”, the CC50 is 13 µM.
Taken in the same sequence, the figures for `COc1cc(NC(C(=O)N2CCc3c(C)cc(C(F)(F)F)cc32)c2ccc(Cl)cc2)cc(OCCO)c1` (single isomer, unassigned) [Compound 10A, 2-(4-chlorophenyl)-2-((3-(2-hydroxyethoxy)-5-methoxy-phenyl)amino)-1-(4-methyl-6-(trifluoromethyl)indolin-1-yl)ethanone] were 1.3 µM and 11 µM.
Taken in the same sequence, the figures for `COc1cc(NC(C(=O)N2CCc3cc(OC)c(C(F)(F)F)cc32)c2ccc(Cl)cc2OC)cc(OCCO)c1` (single isomer, unassigned) [Compound 11A, 2-(4-chloro-2-methoxyphenyl)-2-((3-(2-hydroxyethoxy)-5-methoxyphenyl)amino)-1-(5-methoxy-6-(trifluoromethyl)indolin-1-yl)ethanone] were 0.33 µM and > 25 µM.
In turn, `COc1cc(NC(C(=O)N2CCc3cc(F)c(C(F)(F)F)cc32)c2ccc(Cl)cc2)cc(OCCO)c1` (single isomer, unassigned) [Compound 12B, 2-(4-chlorophenyl)-1-(5-fluoro-6-(trifluoromethyl)indolin-1-yl)-2-((3-(2-hydroxyethoxy)-5-methoxyphenyl)amino)ethanone] had an EC50 with DENV-2 16681 strain of 0.4 µM. Further, the CC50 with Vero cells stood at 11 µM.
In the series with DENV-2 16681 strain, `COc1cc(NC(C(=O)N2CCc3cc(OC)c(OC(F)(F)F)cc32)c2ccc(Cl)cc2)cc(OCCO)c1` (single isomer, unassigned) [Compound 13B, 2-(4-chlorophenyl)-2-((3-(2-hydroxyethoxy)-5-methoxyphenyl)amino)-1-(5-methoxy-6-(trifluoromethoxy)indolin-1-yl)ethanone] showed an EC50 of 0.28 µM. In addition, the CC50 with Vero cells was > 25 µM.

For orientation: EC50 means the concentration at which the effect is half-maximal.
